Measurements from patent US10344060B2 (priority 2013, dated 2019).

target: hNav1.7 (Homo sapiens, UniProt Q15858); test: cell-based; assay type: cell-based; settings: Table 12; PatchXpress, tonic block; read-out: PX hNav1.7 Tonic IC50
Sequence (Q15858 whole entry): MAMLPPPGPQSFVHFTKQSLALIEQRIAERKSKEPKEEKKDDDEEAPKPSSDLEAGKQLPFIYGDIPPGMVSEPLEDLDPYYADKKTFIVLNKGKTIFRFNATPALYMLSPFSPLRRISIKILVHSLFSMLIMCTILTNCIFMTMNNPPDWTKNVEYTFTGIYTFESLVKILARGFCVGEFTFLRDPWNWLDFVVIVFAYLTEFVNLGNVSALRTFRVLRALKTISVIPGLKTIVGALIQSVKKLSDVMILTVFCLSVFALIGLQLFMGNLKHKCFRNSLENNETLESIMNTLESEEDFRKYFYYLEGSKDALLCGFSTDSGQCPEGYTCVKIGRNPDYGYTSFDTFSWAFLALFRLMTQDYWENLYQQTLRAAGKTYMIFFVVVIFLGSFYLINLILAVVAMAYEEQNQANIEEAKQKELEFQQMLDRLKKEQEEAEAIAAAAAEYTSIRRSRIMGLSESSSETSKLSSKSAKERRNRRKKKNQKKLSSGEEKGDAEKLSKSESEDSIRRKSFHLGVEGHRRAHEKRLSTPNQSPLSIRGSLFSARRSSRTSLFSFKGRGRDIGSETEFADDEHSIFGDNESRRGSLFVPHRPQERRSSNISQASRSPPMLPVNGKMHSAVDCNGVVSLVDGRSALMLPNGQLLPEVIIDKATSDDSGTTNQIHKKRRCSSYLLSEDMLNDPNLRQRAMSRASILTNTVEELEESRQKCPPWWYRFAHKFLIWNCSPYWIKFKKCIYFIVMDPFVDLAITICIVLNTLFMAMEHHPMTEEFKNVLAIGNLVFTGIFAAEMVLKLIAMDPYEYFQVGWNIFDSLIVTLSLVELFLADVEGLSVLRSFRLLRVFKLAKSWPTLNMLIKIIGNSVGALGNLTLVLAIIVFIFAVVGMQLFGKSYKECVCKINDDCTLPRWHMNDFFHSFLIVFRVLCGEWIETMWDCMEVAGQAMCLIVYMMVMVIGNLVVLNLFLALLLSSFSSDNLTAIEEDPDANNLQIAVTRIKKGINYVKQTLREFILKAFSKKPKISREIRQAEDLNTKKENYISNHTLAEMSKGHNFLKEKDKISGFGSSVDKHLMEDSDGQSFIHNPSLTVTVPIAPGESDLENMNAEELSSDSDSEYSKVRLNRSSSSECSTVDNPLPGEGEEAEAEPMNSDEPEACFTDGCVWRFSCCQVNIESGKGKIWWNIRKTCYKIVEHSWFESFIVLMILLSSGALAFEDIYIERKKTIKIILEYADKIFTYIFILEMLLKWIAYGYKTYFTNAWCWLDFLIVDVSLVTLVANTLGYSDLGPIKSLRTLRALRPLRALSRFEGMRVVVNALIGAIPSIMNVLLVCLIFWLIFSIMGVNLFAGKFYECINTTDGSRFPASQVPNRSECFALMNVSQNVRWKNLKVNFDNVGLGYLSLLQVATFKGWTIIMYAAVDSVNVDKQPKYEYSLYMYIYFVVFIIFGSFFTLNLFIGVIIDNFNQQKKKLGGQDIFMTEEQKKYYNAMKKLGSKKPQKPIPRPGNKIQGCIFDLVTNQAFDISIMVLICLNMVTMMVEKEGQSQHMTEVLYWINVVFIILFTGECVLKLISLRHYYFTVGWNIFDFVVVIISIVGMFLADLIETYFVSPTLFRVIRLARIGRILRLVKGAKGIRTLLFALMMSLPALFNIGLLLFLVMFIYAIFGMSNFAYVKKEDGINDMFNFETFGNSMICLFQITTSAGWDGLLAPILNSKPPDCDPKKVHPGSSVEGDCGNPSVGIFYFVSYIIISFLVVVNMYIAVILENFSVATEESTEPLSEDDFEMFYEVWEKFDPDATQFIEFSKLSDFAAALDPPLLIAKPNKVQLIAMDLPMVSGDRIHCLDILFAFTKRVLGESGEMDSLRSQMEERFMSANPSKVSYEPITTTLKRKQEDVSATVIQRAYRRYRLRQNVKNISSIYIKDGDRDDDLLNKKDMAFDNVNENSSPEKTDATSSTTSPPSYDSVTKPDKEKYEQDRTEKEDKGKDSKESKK

Compound | IC50 [nM]
C#CC[C@H](N)C(=O)N[C@@H](Cc1ccc(O)cc1)C(=O)N[C@H]1CSSC[C@@H]2NC(=O)[C@@H]3CSSC[C@@H](C(=O)N[C@@H](CCCNC(=N)N)C(=O)N[C@@H](CCCCN)C(=O)N[C@@H](CCC(=O)O)C(=O)N[C@H](C(N)=O)[C@@H](C)CC)NC(=O)[C@H](Cc4ccc5ccccc5c4)NC(=O)[C@H](CC(C)C)NC(=O)[C@H](CCCCN)NC(=O)[C@H](CSSC[C@H](NC(=O)[C@H]([C@@H](C)O)NC(=O)[C@H](Cc4c[nH]c5ccccc45)NC(=O)[C@H](CCCC)NC(=O)[C@H](Cc4c[nH]c5ccccc45)NC(=O)[C@H](CCCCN)NC(=O)[C@H](CCC(N)=O)NC1=O)C(=O)N[C@@H](CC(=O)O)C(=O)N[C@@H](CO)C(=O)N[C@@H](CCCCN)C(=O)N[C@@H](CCCNC(=N)N)C(=O)N[C@@H](C)C(=O)N3)NC(=O)[C@H](CCCNC(=N)N)NC(=O)[C@H](CC(C)C)NC(=O)CNC(=O)[C@H](CCC(=O)O)NC2=O [compound 852] | 182
C#CC[C@H](N)C(=O)N[C@@H](Cc1ccc(O)cc1)C(=O)N[C@H]1CSSC[C@@H]2NC(=O)[C@@H]3CSSC[C@@H](C(=O)N[C@@H](CCCNC(=N)N)C(=O)N[C@@H](CCCCN)C(=O)N[C@@H](CCC(=O)O)C(=O)N[C@H](C(N)=O)[C@@H](C)CC)NC(=O)[C@H](Cc4c[nH]c5ccccc45)NC(=O)[C@H](CC(C)C)NC(=O)[C@H](CCCCN)NC(=O)[C@H](CSSC[C@H](NC(=O)[C@H]([C@@H](C)O)NC(=O)[C@H](Cc4c[nH]c5ccccc45)NC(=O)[C@H](CCCC)NC(=O)[C@H](Cc4cccc5ccccc45)NC(=O)[C@H](CCCCN)NC(=O)[C@H](CCC(N)=O)NC1=O)C(=O)N[C@@H](CC(=O)O)C(=O)N[C@@H](CO)C(=O)N[C@@H](CCCCN)C(=O)N[C@@H](CCCNC(=N)N)C(=O)N[C@@H](C)C(=O)N3)NC(=O)[C@H](CCCNC(=N)N)NC(=O)[C@H](CC(C)C)NC(=O)CNC(=O)[C@H](CCC(=O)O)NC2=O [compound 841] | 70.9
C#CC[C@@H]1NC(=O)[C@@H]2CSSC[C@H](NC(=O)[C@H](Cc3ccc(O)cc3)NC(=O)[C@@H](N)CC#N)C(=O)N[C@@H](CCC(N)=O)C(=O)N[C@@H](CCCCN)C(=O)N[C@@H](Cc3c[nH]c4ccccc34)C(=O)N[C@@H](CCCC)C(=O)N[C@@H](Cc3c[nH]c4ccccc34)C(=O)N[C@@H]([C@@H](C)O)C(=O)N[C@H]3CSSC[C@H](NC(=O)[C@H](CCCNC(=N)N)NC(=O)[C@H](CC(C)C)NC(=O)CNC1=O)C(=O)N[C@@H](CCCCN)C(=O)N[C@@H](CC(C)C)C(=O)N[C@@H](Cc1c[nH]c4cc(C)ccc14)C(=O)N[C@H](C(=O)N[C@@H](CCCNC(=N)N)C(=O)N[C@@H](CCCCN)C(=O)N[C@@H](CCC(=O)O)C(=O)N[C@H](C(N)=O)[C@@H](C)CC)CSSC[C@H](NC(=O)[C@H](C)NC(=O)[C@H](CCCNC(=N)N)NC(=O)[C@H](CCCCN)NC(=O)[C@H](CO)NC(=O)[C@H](CC(=O)O)NC3=O)C(=O)N2 [compound 874] | 14
C#CC[C@H](N)C(=O)N[C@@H](Cc1ccc(O)cc1)C(=O)N[C@H]1CSSC[C@@H]2NC(=O)[C@@H]3CSSC[C@@H](C(=O)N[C@@H](CCCNC(=N)N)C(=O)N[C@@H](CCCCN)C(=O)N[C@H](C(=O)N[C@H](C(N)=O)[C@@H](C)CC)[C@@H](C)CC)NC(=O)[C@H](Cc4c[nH]c5ccccc45)NC(=O)[C@H](CC(C)C)NC(=O)[C@H](CCCCN)NC(=O)[C@H](CSSC[C@H](NC(=O)[C@H]([C@@H](C)O)NC(=O)[C@H](Cc4c[nH]c5ccccc45)NC(=O)[C@H](CCCC)NC(=O)[C@H](Cc4c[nH]c5ccccc45)NC(=O)[C@H](CCCCN)NC(=O)[C@H](CCC(N)=O)NC1=O)C(=O)N[C@@H](CC(=O)O)C(=O)N[C@@H](CO)C(=O)N[C@@H](CCCCN)C(=O)N[C@@H](CCCNC(=N)N)C(=O)N[C@@H](C)C(=O)N3)NC(=O)[C@H](Cc1ccc(O)cc1)NC(=O)[C@H](CC(C)C)NC(=O)CNC(=O)[C@H](CCC(=O)O)NC2=O [compound 682] | 5.98

same assay, conditions: ratio of PX tonic IC50 values; Table 11

Compound | Nav1.4/Nav1.7 | Nav1.5/Nav1.7
CCCC[C@@H]1NC(=O)[C@H](Cc2c[nH]c3ccccc23)NC(=O)[C@H](CCCCN)NC(=O)[C@H](CCC(N)=O)NC(=O)[C@@H](NC(=O)[C@H](Cc2ccc(O)cc2)NC(=O)[C@H](N)Cc2ccccc2)CSSC[C@@H]2NC(=O)[C@@H]3CSSC[C@@H](C(=O)N[C@@H](CCCNC(=N)N)C(=O)N[C@@H](CCCCN)C(=O)N[C@H](C(=O)N[C@H](C(N)=O)[C@@H](C)CC)[C@@H](C)CC)NC(=O)[C@H](Cc4c[nH]c5ccccc45)NC(=O)[C@H](CC(C)C)NC(=O)[C@H](CCCCN)NC(=O)[C@H](CSSC[C@H](NC(=O)[C@H]([C@@H](C)O)NC(=O)[C@H](Cc4c[nH]c5ccccc45)NC1=O)C(=O)N[C@@H](CC(=O)O)C(=O)N[C@@H](CO)C(=O)N[C@@H](CCCCN)C(=O)N[C@@H](CCCNC(=N)N)C(=O)N[C@@H](C)C(=O)N3)NC(=O)[C@H](CCCNC(=N)N)NC(=O)[C@H](CC(C)C)NC(=O)CNC(=O)[C@H](CCC(=O)O)NC2=O [compound 374] | 19 | 1757
CCCC[C@@H]1NC(=O)[C@H](Cc2c[nH]c3ccccc23)NC(=O)[C@H](CCCCN)NC(=O)[C@H](CCC(N)=O)NC(=O)[C@@H](NC(=O)[C@H](Cc2ccc(O)cc2)NC(=O)[C@@H](N)CCCC)CSSC[C@@H]2NC(=O)[C@@H]3CSSC[C@@H](C(=O)N[C@@H](CCCNC(=N)N)C(=O)N[C@@H](CCCCN)C(=O)N[C@H](C(=O)N[C@H](C(N)=O)[C@@H](C)CC)[C@@H](C)CC)NC(=O)[C@H](Cc4c[nH]c5ccccc45)NC(=O)[C@H](CC(C)C)NC(=O)[C@H](CCCCN)NC(=O)[C@H](CSSC[C@H](NC(=O)[C@H]([C@@H](C)O)NC(=O)[C@H](Cc4c[nH]c5ccccc45)NC1=O)C(=O)N[C@@H](CC(=O)O)C(=O)N[C@@H](CO)C(=O)N[C@@H](CCCCN)C(=O)N[C@@H](CCCNC(=N)N)C(=O)N[C@@H](C)C(=O)N3)NC(=O)[C@H](CCCNC(=N)N)NC(=O)[C@H](CC(C)C)NC(=O)CNC(=O)[C@H](CCC(=O)O)NC2=O [compound 370] | 21 | 3729
CCCC[C@@H]1NC(=O)[C@H](Cc2c[nH]c3ccccc23)NC(=O)[C@H](CCCCN)NC(=O)[C@H](CCC(N)=O)NC(=O)[C@@H](NC(=O)[C@H](Cc2ccc(O)cc2)NC(=O)[C@@H](N)CCC(C)C)CSSC[C@@H]2NC(=O)[C@@H]3CSSC[C@@H](C(=O)N[C@@H](CCCNC(=N)N)C(=O)N[C@@H](CCCCN)C(=O)N[C@H](C(=O)N[C@H](C(N)=O)[C@@H](C)CC)[C@@H](C)CC)NC(=O)[C@H](Cc4c[nH]c5ccccc45)NC(=O)[C@H](CC(C)C)NC(=O)[C@H](CCCCN)NC(=O)[C@H](CSSC[C@H](NC(=O)[C@H]([C@@H](C)O)NC(=O)[C@H](Cc4c[nH]c5ccccc45)NC1=O)C(=O)N[C@@H](CC(=O)O)C(=O)N[C@@H](CO)C(=O)N[C@@H](CCCCN)C(=O)N[C@@H](CCCNC(=N)N)C(=O)N[C@@H](C)C(=O)N3)NC(=O)[C@H](CCCNC(=N)N)NC(=O)[C@H](CC(C)C)NC(=O)CNC(=O)[C@H](CCC(=O)O)NC2=O [compound 377] | 13 | 615
CCCC[C@@H]1NC(=O)[C@H](CO)NC(=O)[C@H](CC(=O)O)NC(=O)[C@@H]2CSSC[C@@H]3NC(=O)[C@H](CCCNC(=N)N)NC(=O)[C@H](CC(C)C)NC(=O)CNC(=O)[C@H](CCCCNC(=O)CCOCCOCCOCCOCCOCCOCCOCCOCCOCCOCCOCCOCCN)NC(=O)[C@H](CSSC[C@H](NC(=O)[C@H](Cc4ccc(O)cc4)NC(=O)[C@@H](N)CC#N)C(=O)N[C@@H](CCC(N)=O)C(=O)N[C@@H](CCCCN)C(=O)N[C@@H](Cc4c[nH]c5ccccc45)C(=O)N[C@@H](CCCC)C(=O)N[C@@H](Cc4c[nH]c5ccccc45)C(=O)N[C@@H]([C@@H](C)O)C(=O)N2)NC(=O)[C@H](CSSC[C@@H](C(=O)N[C@@H](CCCNC(=N)N)C(=O)N[C@@H](CCCCN)C(=O)N[C@@H](CCC(=O)O)C(=O)N[C@H](C(N)=O)[C@@H](C)CC)NC(=O)[C@H](Cc2c[nH]c4ccccc24)NC(=O)[C@H](CC(C)C)NC(=O)[C@H](CCCCN)NC3=O)NC(=O)[C@H](C)NC(=O)[C@H](CCCNC(=N)N)NC1=O [compound 561] | 33 | 
CCCC[C@@H]1NC(=O)[C@H](Cc2c[nH]c3ccccc23)NC(=O)[C@H](CCCCN)NC(=O)[C@H](CCC(N)=O)NC(=O)[C@@H](NC(=O)[C@H](Cc2ccc(O)cc2)NC(=O)[C@@H](N)CC#N)CSSC[C@@H]2NC(=O)[C@@H]3CSSC[C@@H](C(=O)N[C@@H](CCCNC(=N)N)C(=O)N[C@@H](CCCCN)C(=O)N[C@H](C(=O)N[C@@H](Cc4c[nH]c5ccccc45)C(N)=O)[C@@H](C)CC)NC(=O)[C@H](Cc4c[nH]c5ccccc45)NC(=O)[C@H](CC(C)C)NC(=O)[C@H](CCCCN)NC(=O)[C@H](CSSC[C@H](NC(=O)[C@H]([C@@H](C)O)NC(=O)[C@H](Cc4c[nH]c5ccccc45)NC1=O)C(=O)N[C@@H](CC(=O)O)C(=O)N[C@@H](CO)C(=O)N[C@@H](CCCCN)C(=O)N[C@@H](CCCNC(=N)N)C(=O)N[C@@H](C)C(=O)N3)NC(=O)[C@H](CCCCNC(=O)CCOCCOCCOCCOCCOCCOCCOCCOCCOCCOCCOCCOCCN)NC(=O)[C@H](CC(C)C)NC(=O)CNC(=O)[C@H](CCC(=O)O)NC2=O [compound 476] | 13 | 71
CCCC[C@@H]1NC(=O)[C@H](Cc2c[nH]c3ccccc23)NC(=O)[C@H](CCCCN)NC(=O)[C@H](CCC(N)=O)NC(=O)[C@@H](NC(=O)[C@H](Cc2ccc(O)cc2)NC(=O)[C@H](CCC)NC(=O)[C@@H](N)CC(C)C)CSSC[C@@H]2NC(=O)[C@@H]3CSSC[C@@H](C(=O)N[C@@H](CCCNC(=N)N)C(=O)N[C@@H](CCCCN)C(=O)N[C@@H](CCC(=O)O)C(=O)N[C@H](C(N)=O)[C@@H](C)CC)NC(=O)[C@H](Cc4c[nH]c5ccccc45)NC(=O)[C@H](CC(C)C)NC(=O)[C@H](CCCCN)NC(=O)[C@H](CSSC[C@H](NC(=O)[C@H]([C@@H](C)O)NC(=O)[C@H](Cc4c[nH]c5ccccc45)NC1=O)C(=O)N[C@@H](CC(=O)O)C(=O)N[C@@H](CO)C(=O)N[C@@H](CCCCN)C(=O)N[C@@H](CCCNC(=N)N)C(=O)N[C@@H](C)C(=O)N3)NC(=O)[C@H](CCCNC(=N)N)NC(=O)[C@H](CC(C)C)NC(=O)CNC(=O)[C@H](CCCCNC(=O)CCOCCOCCOCCOCCOCCOCCOCCOCCOCCOCCOCCOCCN)NC2=O [compound 471] | 6 | 110
